The target in this experiment is T1, transcobalamin-oleosin (TC-O) chimera (Homo sapiens, UniProt P20062).
T1 construct: gene TCN2; single fusion: human TC without N-terminal signal peptide and stop codon, at the N-terminal side of full-length peanut oleosin (ER anchor; printed oleosin primer encodes MATATDR...); pAcSG2 baculovirus, Sf9 cells; membrane fraction, not purified; with Oleosin (peanut, 17 kDa)
T1 sequence (P20062 19-427): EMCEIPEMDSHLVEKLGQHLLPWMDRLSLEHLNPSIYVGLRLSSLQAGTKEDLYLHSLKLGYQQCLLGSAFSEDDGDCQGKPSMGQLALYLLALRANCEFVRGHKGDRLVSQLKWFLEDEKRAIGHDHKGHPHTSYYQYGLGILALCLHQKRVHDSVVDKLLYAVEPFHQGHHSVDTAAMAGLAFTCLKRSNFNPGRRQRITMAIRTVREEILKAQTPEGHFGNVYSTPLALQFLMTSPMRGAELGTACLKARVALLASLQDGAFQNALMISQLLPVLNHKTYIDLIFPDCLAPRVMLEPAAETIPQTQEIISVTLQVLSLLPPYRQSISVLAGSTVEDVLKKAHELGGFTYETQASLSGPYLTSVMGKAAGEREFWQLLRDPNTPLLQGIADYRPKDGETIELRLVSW
Briefly: radioligand saturation binding, Scatchard plot. It is filed as biochemical. The following applies: membrane fraction of lysed Sf9 cells; 57Co labelled compound; TBS, 4 °C, 20 min; printed as Ka but in a concentration unit (that of a dissociation constant).

The values below come from publication PMC2710007, “Anchoring Secreted Proteins in Endoplasmic Reticulum by Plant Oleosin: The Example of Vitamin B12 Cellular Sequestration by Transcobalamin” (PLoS ONE, 2009).

[57Co]-labeled vitamin B12: the Ka is reported as ~ 0.02 pmol/L.
